pEC50: −log10 of the molar value. “And” between values parts separate entries of the source, which are not always exact repeats. Equal entries are not always repeated. Where two headings read alike, the source gives them in different places.
How the values were obtained:
MRGPRX4 + RAMP3 = biological target: T1, MRGPRX4 + RAMP3 (Homo sapiens, UniProt Q96LA9); experiment: IP1 accumulation, MRGPRX4 coexpressed with RAMP3; format: cell-based; parameters: key to IP1 Basal / response to agonist, X4:ramp3.I:0.25 / response to agonist, X4:ramp3.I:0.5 / response to agonist, X4:ramp3.I:1: % IP1; unstimulated mock = 0%, fully stimulated MRGPRX4 = 100%; conditions: for pEC50: read-out: IP1 EC50; for Emax: read-out: IP1 Emax; for IP1 accumulation (normalized): MRGPRX4+RAMP3 1pg 1:1, Supplementary Figure 5f, 5g
T1 construct: expressed in transfected cells; host or cells: HEK293T
Protocol: HEK293T cells were transfected with 1 pg/cell of MRGPRX4 DNA, and the amount of DNA was kept constant at 2 pg/cell with pcDNA3.1(+) empty vector, unless otherwise specified. Twenty four hours after transfection, IP1 assay was performed as previously described ([51]). When applicable, cells were treated with 1 μM YM254890 (YM) or different concentrations of U73122 for 1 h prior to addition of agonist or buffer. After incubation for 2 h, HTRF reagents and IP1 calibration standards were added and incubated for 2 h in the dark at room temperature. Time-resolved fluorescence signals were read on the BioTek Synergy NEO-TRF Hybrid multi-mode reader (BioTek Instruments). All data were carried out in three independent experiments with three technical replicate each.
For RAMP DNA titration assay, HEK293T cells were cotransfected with a constant amount of 1 pg/cell of FLAG-MRGPRX4-GFP10-1D4 to which a serial dilution of 1, 0.75, 0.5, 0.25, or 0 pg/cell of each HA-RAMP-OLLAS was added. For a homogenous transfection of MRGPRX4, a master mix of MRGPRX4 DNA was made prior to addition of the RAMP DNA. […]
Data reduction, standard calibration, and transformation of HTRF data were performed as previously described ([51]). Normalized IP1 values were calculated relative to the unstimulated mock-transfected cells (set to 0%) and fully stimulated MRGPRX4 (alone if applicable) (set to 100%).

[1] = test system: mock-transfected HEK293T cells; experiment: IP1 accumulation, mock-transfected cells; format: cell-based, human; parameters: IP1 Basal / IP1 span / IP1 Emax / IP1 accumulation, dose-response (Figure 1a) / IP1 accumulation with YM (Figure 1c) / IP1 accumulation: unit not given here; conditions: for IP1 accumulation, dose-response (Figure 1a): pcDNA (mock), individual replicates; for IP1 accumulation: mock, Fig S3a-c
[2] = MRGPRX4 + RAMP3 0.25 pg (Fig. S3), normalized per agonist
[3] = MRGPRX4 + RAMP3 0.5 pg (Fig. S3), normalized per agonist
[4] = MRGPRX4 + RAMP3 1 pg (Fig. S3), normalized per agonist
[5] = MRGPRX4 + RAMP3 2 pg (Fig. S3), normalized per agonist
[6] = Tet-On MRGPRX4:RAMP3 Ratio 1:0.5 (Fig. S5F)
[7] = Tet-On MRGPRX4:RAMP3 Ratio 1:0.75 (Fig. S5F)
[8] = Tet-On MRGPRX4:RAMP3 Ratio 1:1 (Fig. S5F)

T1 sequence (Q96LA9 whole entry): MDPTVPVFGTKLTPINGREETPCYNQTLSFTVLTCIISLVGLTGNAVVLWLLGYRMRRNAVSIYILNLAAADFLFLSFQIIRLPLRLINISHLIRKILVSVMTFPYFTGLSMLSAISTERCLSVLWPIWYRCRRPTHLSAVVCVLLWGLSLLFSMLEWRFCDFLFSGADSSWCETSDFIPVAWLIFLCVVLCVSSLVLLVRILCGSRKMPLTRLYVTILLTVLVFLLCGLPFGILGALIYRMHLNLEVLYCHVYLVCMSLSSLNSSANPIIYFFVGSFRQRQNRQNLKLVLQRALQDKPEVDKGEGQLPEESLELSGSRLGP

CC(C)[C@H]1CC[C@H](C(=O)N[C@H](Cc2ccccc2)C(=O)O)CC1 [Nateglinide]
response to agonist, X4:ramp3.I:0.5 (MRGPRX4 + RAMP3; Figure 4c-f, agonist 100µM, X4:ramp3 1:0.5, MRGPRX4 = 100): 74.9289 and 71.6542
response to agonist, X4:ramp3.I:1 (MRGPRX4 + RAMP3; Figure 4c-f, agonist 100µM, X4:ramp3 1:1, MRGPRX4 = 100): 57.9146 and 58.6922
IP1 Basal (MRGPRX4 + RAMP3; [2]): 18.35
IP1 span (top minus basal of the concentration-response fit) (MRGPRX4 + RAMP3; [2]): 72%
pEC50 (MRGPRX4 + RAMP3; [2]): 5.13
Emax (MRGPRX4 + RAMP3; [2]): 90.3%
IP1 Basal (MRGPRX4 + RAMP3; [3]): 17.78
IP1 span (top minus basal of the concentration-response fit) (MRGPRX4 + RAMP3; [3]): 70.5%
pEC50 (MRGPRX4 + RAMP3; [3]): 4.98
Emax (MRGPRX4 + RAMP3; [3]): 88.3%
IP1 Basal (MRGPRX4 + RAMP3; [4]): 13.65
IP1 span (top minus basal of the concentration-response fit) (MRGPRX4 + RAMP3; [4]): 76.8%
pEC50 (MRGPRX4 + RAMP3; [4]): 4.92
Emax (MRGPRX4 + RAMP3; [4]): 90.4%
IP1 Basal (MRGPRX4 + RAMP3; [5]): 11.70
IP1 span (top minus basal of the concentration-response fit) (MRGPRX4 + RAMP3; [5]): 79.7%
pEC50 (MRGPRX4 + RAMP3; [5]): 4.84
Emax (MRGPRX4 + RAMP3; [5]): 91.3%
IP1 Basal (MRGPRX4 + RAMP3; [6]): 10.08
IP1 span (top minus basal of the concentration-response fit) (MRGPRX4 + RAMP3; [6]): 83.3%
pEC50 (MRGPRX4 + RAMP3; [6]): 5.14
Emax (MRGPRX4 + RAMP3; [6]): 93.4%
IP1 Basal (MRGPRX4 + RAMP3; [7]): 8.392
IP1 span (top minus basal of the concentration-response fit) (MRGPRX4 + RAMP3; [7]): 72.2%
pEC50 (MRGPRX4 + RAMP3; [7]): 5.15
Emax (MRGPRX4 + RAMP3; [7]): 80.5%
IP1 Basal (MRGPRX4 + RAMP3; [8]): 9.885
IP1 span (top minus basal of the concentration-response fit) (MRGPRX4 + RAMP3; [8]): 71.3%
pEC50 (MRGPRX4 + RAMP3; [8]): 5.06
Emax (MRGPRX4 + RAMP3; [8]): 81.2%
IP1 accumulation (normalized) (MRGPRX4 + RAMP3; log [nateglinide] (M) -4): 57.5355 and 90.9736 and 62.9483
IP1 accumulation (normalized) (MRGPRX4 + RAMP3; log [nateglinide] (M) -4.69897): 50.3774 and 62.0079 and 49.4001
IP1 accumulation (normalized) (MRGPRX4 + RAMP3; log [nateglinide] (M) -5.39794): 23.5136 and 36.2384 and 24.8216
IP1 accumulation (normalized) (MRGPRX4 + RAMP3; log [nateglinide] (M) -6.09691): 12.0843 and 16.5706 and 10.8044
IP1 accumulation (normalized) (MRGPRX4 + RAMP3; log [nateglinide] (M) -7.49485): 6.988 and 11.3646 and 7.305
IP1 accumulation, dose-response (Figure 1a) ([1]; log [agonist] (M) -4): 0.2271 and 0.3078 and 0.4629 and -0.5571 and 0.3306 and 0.0456 and 0.8656 and -0.04322 and 0.1347 and -0.9843 and -0.02794 and -0.8867
IP1 accumulation, dose-response (Figure 1a) ([1]; log [agonist] (M) -4.95424): 0.4814 and 0.1593 and 0.9731 and 0.2847 and 0.3905 and 0.01267 and 0.9879 and -0.1469 and 0.1915 and -0.5702 and -0.3086 and -0.9418
IP1 accumulation, dose-response (Figure 1a) ([1]; log [agonist] (M) -5.90849): 0.6831 and 0.2899 and 0.8301 and 0.7307 and 0.1868 and 0.3562 and 0.4874 and 0.05414 and 0.7331 and -0.7448 and -0.08445 and -0.6788
IP1 accumulation, dose-response (Figure 1a) ([1]; log [agonist] (M) -6.86273): 1.046 and 0.7412 and 1.424 and 1.025 and 0.6018 and 0.6703 and 1.266 and 0.6126 and 1.453 and 0.03754 and 0.2747 and 0.1665
IP1 accumulation ([1]; log [Nateglinide] (M) -4): 1.284 and 1.14
IP1 accumulation ([1]; log [Nateglinide] (M) -4.69897): 0.9537 and 0.9999 and 1.07
normalized IP1 accumulation ([1]; pcDNA, log [agonist] (M) -5.39794): 0.47 and 0.5436 and 0.4562
